Some results are limits rather than exact numbers.

The assay concerns MDA MB 231 cells. The experiment in a line: Antiproliferation assay in MDA MB 231 cells (Cell Titer Glo). Format: cell-based. The following applies: Homo sapiens, MDA-MB-231, 216 h, MDAMB231 cell line, 9 day treatment, racemic compounds (Table 2). The protocol: Antiproliferation Assay in MDA MB 231 Cells MDA MB 231 cells were seeded in 96 well plate at a seeding density of 250 cells/well. The cells were allowed to settle overnight under standard incubator conditions (37° C., 5% CO2). Next day treatment with increasing dose of test compounds and reference compounds were done to the respective wells and the cells were further incubated under standard cell culture conditions for another 4 days. On the 5th day, media was replenished with fresh treatment and cells were incubated for a total of 9 day treatment period. On the day of termination, appropriate volume of Cell Titer Glo reagent was added to the treatment (and control) wells and the plates were kept on a plate shaker @300 RPM for 15 min. Luminiscence reading (RLU) was […] RLU is directly proportional to ATP content and is directly related to number of metabolically active cells in the respective well. Calculation: a. Blank Correction: RLU of the Wells Containing No Cells is Considered as Blank and Subtracted from all RLU of the Treated and Control Wells [formula]
(In general: In ATP-based viability assays light output follows the ATP content of the culture.)
On to `CCC(=O)N1N=C(c2c(C)c3ccsc3[nH]c2=O)CC1c1ccc(C(C)C)cc1` (stereo not shown) [Example 49, 5-(5-(4-isopropylphenyl)-1-propionyl-4,5-dihydro-1H-pyrazol-3-yl)-4-methylthieno[2,3-b]pyridin-6(7H)-one], for which the inhibition (in general, the change of the read-out against control, counted positive when it falls) at 10 µM was below 50%.
In turn, `CCC(=O)N1N=C(c2c(C)c3ccsc3[nH]c2=O)CC1c1cnc(C)cc1C` (stereo not shown) [Example 50, 5-(5-(4,6-dimethylpyridin-3-yl)-1-propionyl-4,5-dihydro-1H-pyrazol-3-yl)-4-methylthieno[2,3-b]pyridin-6(7H)-one] returned an inhibition at 10 µM below 50%.
As for `CCC(=O)N1N=C(c2c(C)c3ccsc3[nH]c2=O)CC1c1cnc(C)nc1` (stereo not shown) [Example 51, 4-methyl-5-(5-(2-methylpyrimidin-5-yl)-1-propionyl-4,5-dihydro-1H-pyrazol-3-yl)thieno[2,3-b]pyridin-6(7H)-one], the figure is below 50%; as for `CCC(=O)N1N=C(c2c(C)c3ccsc3[nH]c2=O)CC1c1cnc(C)c(Cl)c1` (stereo not shown) [Example 52, 5-(5-(5-chloro-6-methylpyridin-3-yl)-1-propionyl-4,5-dihydro-1H-pyrazol-3-yl)-4-methylthieno[2,3-b]pyridin-6(7H)-one], at least 50%; as for `CCC(=O)N1N=C(c2c(C)c3ccsc3[nH]c2=O)CC1c1cnc(C)cc1OC` (stereo not shown) [Example 53, 5-(5-(4-methoxy-6-methylpyridin-3-yl)-1-propionyl-4,5-dihydro-1H-pyrazol-3-yl)-4-methylthieno[2,3-b]pyridin-6(7H)-one], below 50%.
The value for `CCC(=O)N1N=C(c2c(C)c3ccsc3[nH]c2=O)CC1c1cnc(C)c(C)c1` (stereo not shown) [Example 54, 5-(5-(5,6-dimethylpyridin-3-yl)-1-propionyl-4,5-dihydro-1H-pyrazol-3-yl)-4-methylthieno[2,3-b]pyridin-6(7H)-one] was at least 50%; that for `CCC(=O)N1N=C(c2c(C)c3ccsc3[nH]c2=O)CC1c1cnc(C)c(F)c1` (stereo not shown) [Example 55, 5-(5-(5-fluoro-6-methylpyridin-3-yl)-1-propionyl-4,5-dihydro-1H-pyrazol-3-yl)-4-methylthieno[2,3-b]pyridin-6(7H)-one] was at least 50%.
The value for `CCC(=O)N1N=C(c2c(C)c3ccsc3[nH]c2=O)CC1c1cnc(C)cc1Cl` (stereo not shown) [Example 56, 5-(5-(4-chloro-6-methylpyridin-3-yl)-1-propionyl-4,5-dihydro-1H-pyrazol-3-yl)-4-methylthieno[2,3-b]pyridin-6(7H)-one] was at least 50%; that for `CCC(=O)N1N=C(c2c(C)c3ccsc3[nH]c2=O)CC1c1cnc(C)s1` (stereo not shown) [Example 57, 4-methyl-5-(5-(2-methylthiazol-5-yl)-1-propionyl-4,5-dihydro-1H-pyrazol-3-yl)thieno[2,3-b]pyridin-6(7H)-one] was at least 50%.
Compound `CCC(=O)N1N=C(c2c(C)c3ccsc3[nH]c2=O)CC1C1CCCCC1` (stereo not shown) [Example 58, 5-(5-cyclohexyl-1-propionyl-4,5-dihydro-1H-pyrazol-3-yl)-4-methylthieno[2,3-b]pyridin-6(7H)-one] displayed an inhibition at 10 µM below 50%.
The value for `CCC(=O)N1N=C(c2c(C)c3cc(Cl)ccc3[nH]c2=O)CC1c1ccc(C)cc1` (stereo not shown) [Example 59, 6-chloro-4-methyl-3-(1-propionyl-5-(p-tolyl)-4,5-dihydro-1H-pyrazol-3-yl)quinolin-2(1H)-one] was at least 50%.
On to `CCC(=O)N1N=C(c2c(C)c3nc(Cl)ccc3[nH]c2=O)CC1c1ccc(C)cc1` (stereo not shown) [Example 61, 6-chloro-4-methyl-3-(1-propionyl-5-(p-tolyl)-4,5-dihydro-1H-pyrazol-3-yl)-1,5-naphthyridin-2(1H)-one], for which the inhibition at 10 µM was at least 50%.
For `CC(=O)N1N=C(c2c(C)c3ccsc3[nH]c2=O)CC1c1ccc(C)cc1` (stereo not shown) [Example 62, 5-(1-acetyl-5-(p-tolyl)-4,5-dihydro-1H-pyrazol-3-yl)-4-methyl-7,7a-dihydrothieno[2,3-b]pyridin-6(7H)-one], the inhibition at 10 µM was at least 50%.

The values above are taken from US20250145601A1, “NOVEL BICYCLIC COMPOUNDS AS RAD51 INHIBITORS” (SATYA THERAPEUTICS, INC., priority 2022, published 2025).
